“Also recorded” adds a separate entry of the source. Like-named read-outs stand apart in the source and are kept apart here.
Experiments:
[1] = test system: PNC in HeLa cancer cells; experiment: PNC inhibition: IC50 inhibiting PNC in cancer cells (HeLa); format: cell-based; conditions: for IC50: Homo sapiens, HeLa cancer cells, inhibiting PNC; for fold more potent than metarrestin: PNC inhibition, versus metarrestin; for IC50 nucleoli.normal/IC50 PNC.cancer: ratio RPE1 nucleoli IC50 to HeLa PNC IC50
Method: PNC inhibitory activity was determined using fluorescent imaging techniques known in the art, such as: a CellTiter-Glo® luminescence assay from Promega to determine cell viability and/or fluorescent imaging studies with an IN Cell Analyzer 1000 automated system in combination with a green fluorescent protein (GFP) tagged PNC localized complex.

[2] = test system: nucleoli in RPE1 normal cells; experiment: IC50 disrupting nucleoli in normal cells (RPE1); format: cell-based; conditions: Homo sapiens, RPE-1
[3] = target: T1, eEF1A2 (Homo sapiens, UniProt Q05639); experiment: Western blot analysis of eEF1A2 protein levels; format: cell-based; design: dose or concentration left out as unconfirmed; conditions: actin loading control, vehicle as standard of one; preliminary
T1 construct: Compound 49 treatment for 20 hours reduced eEF1A2 by Western blot analysis; endogenous in cells
T1 sequence (Q05639 1-463): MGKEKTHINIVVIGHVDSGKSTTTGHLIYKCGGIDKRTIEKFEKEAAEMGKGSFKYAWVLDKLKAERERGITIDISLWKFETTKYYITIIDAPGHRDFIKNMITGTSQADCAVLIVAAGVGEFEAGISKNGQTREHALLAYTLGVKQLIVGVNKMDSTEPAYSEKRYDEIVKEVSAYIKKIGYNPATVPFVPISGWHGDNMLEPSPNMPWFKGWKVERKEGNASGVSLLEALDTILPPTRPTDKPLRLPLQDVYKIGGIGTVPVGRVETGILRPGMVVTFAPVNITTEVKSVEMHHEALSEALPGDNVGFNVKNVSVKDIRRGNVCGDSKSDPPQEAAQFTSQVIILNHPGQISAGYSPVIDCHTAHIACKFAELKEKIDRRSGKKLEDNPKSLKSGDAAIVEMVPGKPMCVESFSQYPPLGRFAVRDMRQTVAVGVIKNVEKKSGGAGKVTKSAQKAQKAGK
Excerpt: FIGS. 6A and 6B show results from metarrestin-PROTAC studies.

[4] = test system: PNC prevalence in HeLA cells; experiment: Percentage of HeLa cells with PNCs after treatment (FIG. 7); format: cell-based
Excerpt: PNC prevalence is correlated with metastatic potential and can be disrupted through modulation of the elongation factor eEF1A.

[5] = test system: PANC1; experiment: Orthotopic mouse model with 3-D cultured PANC1 cells (metastasis); format: in vivo
Method: (§1) FIGS. 2A-2F show metarrestin and various studies.
(§2) Using a high-content screen to measure reduction of PNC prevalence, noncytotoxic PNC inhibitor hit compounds were discovered such as metarrestin, (FIG. 2A). […] Metarrestin was further evaluated in xenograft models of PC3M (metastatic prostate cancer cell line) and in a breast cancer patient-derived xenograft (PDX, harvested from a lung metastasis site). […] When the survival of the PANC1 tumor-bearing animals was evaluated, two sets of experiments were performed to determine efficacy at two treatment starting points, either after (eight weeks post-inoculation) or prior to (four weeks post-inoculation) macrometastasis had been established.

[6] = test system: PC3M (metastatic prostate cancer cell line); conditions: PC3M xenograft, reference [5]; cited from earlier work
[7] = target: T1, eEF1A2; experiment: Competition with anchored biotinylated metarrestin-eEF1A2 complex; format: binding; conditions: FIG. 3A
Excerpt: (§3) FIGS. 3A-3E show metarrestin binding and cellular data. FIG. 3A presents data showing that metarrestin specifically binds eEF1A2, and increased eEF1A2 enhances PNCs and metastasis formation. […] Mice from both groups were harvested six weeks after implantation and subjected to necropsy. […] Histopathological images (H&E) of livers (black scale bar=250 μm, white scale bar=100 μm) are shown on the right. Insets depict representative metastatic lesions.
(§4) With respect to the metarrestin target eEF1A2, the biased expression of eEF1A2 in cancer cells over normal adult cells (except neuronal cells) was used to selectively target cancer cells. […] Increased eEF1A2 enhances PNC number per cell (FIG. 3C) and metastasis formation (FIG. 3E). […] Expression of eEF1A2 is associated with cancer metastasis and correlates with poor patient outcomes.

[8] = test system: PNC in PC3M cells; experiment: PNC disassembly in PC3M cells with eEF1A2 overexpression; format: cell-based; conditions: FIG. 3D
Excerpt: as §3, §4

[9] = reference [29], cited from earlier work
[10] = test system: PANC1; experiment: Survival of PANC1 tumor-bearing animals; format: in vivo, mouse; conditions: for animal survival, treatment started post-macrometastasis formation / animal survival, treatment started prior to macrometastasis formation: food pellets, 10 mg/kg daily; for animal survival, treatment started post-macrometastasis formation: start eight weeks post-inoculation, FIG. 2F; for animal survival, treatment started prior to macrometastasis formation: start four weeks post-inoculation, FIG. 2E; for organ tumor replacement at autopsy (liver, lung, pancreas): treatment after macrometastasis, versus regular food pellets, FIG. 2G
Method: as §1, §2

[11] = daily treatment for up to three months, animals, reference [5]; cited from earlier work
[12] = Large mammal dose-escalation studies; format: in vivo; conditions: overloading dosing
Excerpt: Thus, the potential for dose-limiting neurological side effects could constrain the patient population to drug-resistant or late-stage individuals. However, cancer patient outcomes would generally greatly benefit from adjuvant or co-administration use of an anti-metastasis agent such as metarrestin at any stage of cancer. Therefore, in order to improve the cancer cell selectivity and reduce potential toxicity to normal cells, development of next generation metarrestin derivatives that selectively enhance drug efficacy against cancer cells over normal cells were needed.

[13] = target: T1, eEF1A2; experiment: Thermal stability assay using PC3M cell lysate; format: binding; conditions: FIG. 3B
Excerpt: as §3, §4

[14] = target: T1, eEF1A2; conditions: similar treatment conditions, reference [5]; cited from earlier work
[15] = test system: migration and invasion; conditions: reference [5]; cited from earlier work
[16] = test system: breast cancer patient-derived xenograft; conditions: PDX harvested from a lung metastasis site, reference [5]; cited from earlier work

Question: For N=c1c2c(-c3ccccc3)c(-c3ccccc3)n(Cc3cccc(CNC(=O)CCCCCNc4cccc5c4C(=O)N(C4CCC(=O)NC4=O)C5=O)c3)c2ncn1C1CCC(O)CC1 (stereo not shown) [Compound 46], which IC50 [1] is on record?
Answer: 0.11 µM

Question: And the “fold more potent than metarrestin” value [1]?
Answer: threefold

Question: What about the “IC50 nucleoli.normal/IC50 PNC.cancer” value [1] of the same compound?
Answer: 4.27

Question: And the IC50 [2]?
Answer: 0.47 µM

Question: With O=C1CCC(N2C(=O)c3cccc(NCCCCCNC(=O)c4ccc(Cn5c(-c6ccccc6)c(-c6ccccc6)c6c(NC7CCC(O)CC7)ncnc65)cc4)c3C2=O)C(=O)N1 (stereo not shown) [Compound 49] as the compound, how does the IC50 [1] read?
Answer: 0.025 µM

Question: And the “fold more potent than metarrestin” value [1]?
Answer: 14 fold

Question: What about the “IC50 nucleoli.normal/IC50 PNC.cancer” value [1] of the same compound?
Answer: 4

Question: And the “eEF1A2 protein levels by Western blot” value [3]?
Answer: significantly reduced; also recorded: significant reduction

Question: And the IC50 [2]?
Answer: 0.1 µM

Question: For N=c1c2c(-c3ccccc3)c(-c3ccccc3)n(Cc3ccccc3)c2ncn1[C@H]1CC[C@H](OC(=O)CCCNc2cccc3c2C(=O)N(C2CCC(=O)NC2=O)C3=O)CC1 (stereo partly shown) [Compound 56], which “PNC prevalence (percentage of cells with PNCs)” value [4] is on record?
Answer: almost complete disruption of PNC prevalence

Question: And the “PNC prevalence (percentage of cells with PNCs)” value ([4]; 0.1 μM)?
Answer: measureable reduction in PNC prevalence

Question: Which “PNC prevalence (percentage of cells with PNCs)” value [4] does the source give for N=c1c2c(-c3ccccc3)c(-c3ccccc3)n(Cc3ccccc3)c2ncn1[C@H]1CC[C@H](OC(=O)CCOCCOCCOCCNc2cccc3c2C(=O)N(C2CCC(=O)NC2=O)C3=O)CC1 (stereo partly shown) [Compound 57] here?
Answer: almost complete disruption of PNC prevalence

Question: And the “PNC prevalence (percentage of cells with PNCs)” value ([4]; 0.1 μM)?
Answer: measureable reduction in PNC prevalence

Question: With N=c1c2c(-c3ccccc3)c(-c3ccccc3)n(Cc3ccccc3)c2ncn1[C@H]1CC[C@H](O)CC1 [Metarrestin] as the compound, how does the “metastasis as organ/tumor ratio in liver and lung” value ([5]; 5 mg/kg and 25 mg/kg, FIG. 2B) read?
Answer: inhibits metastasis

Question: And the “metastatic burden in lung and liver” value ([5]; 25 mg/kg IP daily for four weeks)?
Answer: significantly reduced the metastatic burden

Question: And the primary tumor growth ([5]; 25 mg/kg IP daily for four weeks, data not shown)?
Answer: only modest reduction

Question: What about the “metastasis as metastatic deposits in liver and lung” value ([5]; 25 mg/kg, FIG. 2C) of the same compound?
Answer: inhibits metastasis

Question: And the organ metastasis [6]?
Answer: significant inhibition of organ metastasis

Question: And the “competition of recombinant eEF1A2 binding to anchored biotinylated metarrestin” value [7]?
Answer: effectively outcompeted

Question: And the “change of IC50 for PNC disassembly on eEF1A2 overexpression” value [8]?
Answer: increased the IC50

Question: And the half-life ([9]; allows once-a-day dosing)?
Answer: long

Question: What about the tissue distribution [9] of the same compound?
Answer: good

Question: What about the “animal survival, treatment started post-macrometastasis formation” value ([10]; 10 mg/kg) of the same compound?
Answer: significantly improved animal survival

Question: What about the “animal survival, treatment started post-macrometastasis formation” value ([10]; listed as metarrestin, 10 mg/kg) of the same compound?
Answer: effective at extending survival

Question: And the “animal survival, treatment started prior to macrometastasis formation” value [10]?
Answer: drastic animal survival advantages

Question: What about the “animal survival, treatment started prior to macrometastasis formation” value ([10]; 10 mg/kg) of the same compound?
Answer: completely prevented metastasis-induced death

Question: And the “organ tumor replacement at autopsy (liver, lung, pancreas)” value [10]?
Answer: did not show significant tumor replacement

Question: What about the “organ tumor replacement at autopsy (liver, lung, pancreas)” value ([10]; listed as metarrestin) of the same compound?
Answer: less tumors were present

Question: What about the adverse effects [11] of the same compound?
Answer: does not induce discernable adverse effects

Question: What about the IC50 [1] of the same compound?
Answer: 0.36 µM

Question: And the “IC50 nucleoli.normal/IC50 PNC.cancer” value [1]?
Answer: 6.25

Question: And the seizures [12]?
Answer: reversible seizures

Question: What about the “thermal stabilization of eEF1A2” value [13] of the same compound?
Answer: stabilized eEF1A; also recorded: stabilized eEF1A2

Question: What about the eEF1A2 protein levels [14] of the same compound?
Answer: does not reduce the protein levels

Question: What about the “in vitro anti-oncogenic properties” value [15] of the same compound?
Answer: migration and invasion inhibition

Question: And the IC50 [2]?
Answer: 2.5 µM

Question: What about the metastatic tumor growth [16] of the same compound?
Answer: metastatic tumor growth inhibition

— patent US20260028342A1, “ENHANCING ANTIMETASTASIS ACTIVITY USING TARGETED PROTEIN DEGRADATION” (THE UNIVERSITY OF NORTH CAROLINA AT CHAPEL HILL, priority 2022, published 2026)
